From paper PMC6085350, “Small molecule inhibitors of RAS-effector protein interactions derived using an intracellular antibody fragment” (Nature Communications, 2018)

Key:
[1] = biological target: T1, HRAS^G12V-GppNHp (Homo sapiens, UniProt P01112, G12V); assay: SPR binding to HRAS G12V-GppNHp
T1 construct: expression of HRAS (1-166) HRAS^G12V or KRAS^G12V cDNA cloned into the pGEX-2T vector; made in house; host or cells: E. coli C41(DE3)
Procedure: A BIAcore T100 (GE Healthcare) was used to screen the fragment library for RAS binders. A polyclonal goat anti-GST antibody (GE Healthcare) was immobilized on a CM5 sensor chip (GE Healthcare) by the amine coupling method. To immobilize the antibody on CM5 chip, the chip was first activated by injecting 100 µl mixture of 0.2 M EDC (N-ethyl-N-(dimethylaminopropyl) carbodiimide hydrochloride) and 0.05 M NHS (N-hydroxysuccinimide) at 10 µl/min flow rate. Furthermore, 100 µg/ml anti-GST antibody in 10 mM sodium acetate, pH 5.0 was injected at 5 µl/min for 900 s and immobilized until 20,000 ~ 25,000 RU. After immobilization the chip was immediately inactivated by injecting 1 M ethanolamine, pH 8.5 at 10 µl/min for 600 s. The chip was kept running in the HBS buffer (GE Healthcare) comprising 10 mM HEPES, […], 150 mM NaCl. […] Before fragment library screening, the running buffer was replaced by 20 mM Tris, pH 8, 150 mM NaCl, 5 mM MgCl2, 5% DMSO. DMSO solvent correction curves were generated by injecting the running buffers with serial concentrations of DMSO ranging from 4.5 to 6%. For fragment screening, each compound was diluted at 200 µM or 1 mM, 5% DMSO in 20 mM Tris, pH 8, 150 mM NaCl, 5 mM MgCl2 buffer in a polypropylene 96 well plate. The individual compounds were injected at 30 µl for 60 s at 30 µl/min flow rate over flow cells Fc1, Fc2, Fc3 and Fc4. […]

[2] = tested on: AKT phosphorylation (Ser473) in H358 cells (KRAS^G12C); assay: Biomarker phosphorylation assay, pAKT, H358; format: cell-based, human; details: EGF 10 min
Procedure: (§1) Fig. 5 Abd-7 results on RAS-dependent signalling pathways and cell viability. a, b DLD-1 (a) or H358 (b) cells were serum-starved for 24 h, incubated in mono-layer with Abd-7 in a range from 2, 5, 10 and 20 μM for 3 h and stimulated with EGF 10 min. Proteins were extracted and separated by SDS-PAGE and transferred to membranes for Western analysis with anti-pAKT, anti-pERK, anti-pan AKT and anti-pan ERK. Anti-cyclophilin B antibody was the loading control. Signal was developed using standard ECL. c–e Effects of compounds Abd-2, Abd-4, Abd-5, Abd-6, and Abd-7 on the viability of human cancer cells lines was assessed for a 2-D culture of DLD-1 (mutant KRAS^G13D) cells and HT1080 cells (mutant NRAS^Q61K). The cells were treated with a dose range from 0 μM to 20 μ and incubated for 72 h when cell viability was assessed using CellTitreGlo. […] Each experiment was repeated at least three times (a, b) and four times (c, d). Where error bars are presented, they correspond to mean values ± SD of biological repeats
A total of 450,000 DLD1 or 640,000 H358 cells were seeded per well of a six well plate. Approximately, 20 h later, the medium was removed, the cells washed twice with PBS and DMEM without FBS was added and left for 24 h. The medium was removed and 2 ml of DMEM no FBS was added with the appropriate concentration of compound (DMSO, 2, 5, 10 or 20 μM) for 3 h. Cells were stimulated with EGF (50 ng/ml) for 10 min, washed once with PBS and directly lysed in SDS-Tris buffer (1% SDS, 10 mM Tris-HCl pH 7.4) supplemented with protease inhibitors (Sigma) and phosphatase inhibitors (Thermo-Fisher). Cell lysates were sonicated with a Branson Sonifier and the protein concentrations determined by using the Pierce BCA protein assay kit (Thermo-Fisher). Furthermore, 10 μg of protein were resolved on 10 or 12.5% SDS-PAGE and subsequently transferred onto a PVDF membrane (GE). The membrane was blocked (with 10% non-fat milk (Sigma) or 10% BSA (Sigma) in TBS-0.1% Tween20) and incubated overnight with primary antibody at 4 °C. […]

[3] = biological target: PI3KC2; assay: Kinase panel (KinaseProfiler), second PI3KC2 line; format: biochemical, human; details: PI3KC2 (second of two lines), 10μM
Procedure: (§2) Experiments were performed by Eurofins Pharma Discovery Services. The KinaseProfiler™ assay protocol guide can be downloaded from their website: www.eurofins.com/discoveryservices. The guide contains information on the buffer conditions, substrate and reference inhibitor blank used for each kinase.
(§3) Supplementary Table 3. Assessment of potential interaction of Abd-7 with a human kinase
(§4) Kinase % kinase activity in
(§5) A panel of 14 Kinases (relevant to the RAS pathway) has been screened against Abd-7
(§6) (10μM) and the kinase activity was measured. […] of activity was observe for all
(§7) function of the selected and RAS relevant kinase proteins.

[4] = biological target: T2, MEK1 (Homo sapiens, UniProt Q02750); assay: Kinase panel (KinaseProfiler); format: biochemical; details: MEK1, 10μM
T2 construct: purchased Eurofins Pharma Discovery Services (KinaseProfiler)
Procedure: as §2, §3, §4, §5, §6, §7

[5] = biological target: T3, MAPK2 (Homo sapiens, UniProt P28482); assay: Kinase panel (KinaseProfiler); format: biochemical; details: MAPK2, 10μM
T3 construct: purchased Eurofins Pharma Discovery Services (KinaseProfiler)
Procedure: as §2, §3, §4, §5, §6, §7

[6] = biological target: T4, PKBγ (Homo sapiens, UniProt Q9Y243); assay: Kinase panel (KinaseProfiler); format: biochemical; details: 10μM
T4 construct: purchased Eurofins Pharma Discovery Services (KinaseProfiler)
Procedure: as §2, §3, §4, §5, §6, §7

[7] = biological target: T5, MAPK1 (Homo sapiens, UniProt P27361); assay: Kinase panel (KinaseProfiler); format: biochemical; details: MAPK1, 10μM
T5 construct: purchased Eurofins Pharma Discovery Services (KinaseProfiler)
Procedure: as §2, §3, §4, §5, §6, §7

[8] = tested on: ERK1/2 phosphorylation in DLD-1 cells (KRAS^G13D); assay: Biomarker phosphorylation assay, pERK, DLD-1; format: cell-based, human; details: DLD-1, 2-20 μM, 3 h, EGF 10 min
Procedure: as §1
A total of 450,000 DLD1 or 640,000 H358 cells were seeded per well of a six well plate. Approximately, 20 h later, the medium was removed, the cells washed twice with PBS and DMEM without FBS was added and left for 24 h. […] Cell lysates were sonicated with a Branson Sonifier and the protein concentrations determined by using the Pierce BCA protein assay kit (Thermo-Fisher). […]

T4 sequence (Q9Y243 whole entry): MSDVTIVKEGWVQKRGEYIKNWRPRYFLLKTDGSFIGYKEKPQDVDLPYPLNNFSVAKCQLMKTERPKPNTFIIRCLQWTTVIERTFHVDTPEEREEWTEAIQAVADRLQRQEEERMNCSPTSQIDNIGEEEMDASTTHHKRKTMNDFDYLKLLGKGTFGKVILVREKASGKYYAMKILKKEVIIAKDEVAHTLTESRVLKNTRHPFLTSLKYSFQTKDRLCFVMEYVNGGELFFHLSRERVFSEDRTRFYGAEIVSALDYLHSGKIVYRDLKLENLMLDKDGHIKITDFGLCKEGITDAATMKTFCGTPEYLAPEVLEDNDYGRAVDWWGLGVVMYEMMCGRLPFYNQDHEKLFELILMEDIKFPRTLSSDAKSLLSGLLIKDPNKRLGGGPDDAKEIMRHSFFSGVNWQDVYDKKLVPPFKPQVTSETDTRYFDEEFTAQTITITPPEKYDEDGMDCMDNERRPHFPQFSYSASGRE
T3 sequence (P28482 whole entry): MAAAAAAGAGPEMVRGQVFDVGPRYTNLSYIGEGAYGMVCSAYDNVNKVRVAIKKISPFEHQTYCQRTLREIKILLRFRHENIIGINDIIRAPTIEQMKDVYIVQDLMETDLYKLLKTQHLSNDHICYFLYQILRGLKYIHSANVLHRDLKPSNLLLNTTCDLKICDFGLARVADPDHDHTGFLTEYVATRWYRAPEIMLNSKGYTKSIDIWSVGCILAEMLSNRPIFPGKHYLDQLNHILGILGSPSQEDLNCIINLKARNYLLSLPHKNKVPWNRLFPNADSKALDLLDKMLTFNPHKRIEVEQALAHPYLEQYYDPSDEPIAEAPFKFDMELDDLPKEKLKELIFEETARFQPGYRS
T2 sequence (Q02750 whole entry): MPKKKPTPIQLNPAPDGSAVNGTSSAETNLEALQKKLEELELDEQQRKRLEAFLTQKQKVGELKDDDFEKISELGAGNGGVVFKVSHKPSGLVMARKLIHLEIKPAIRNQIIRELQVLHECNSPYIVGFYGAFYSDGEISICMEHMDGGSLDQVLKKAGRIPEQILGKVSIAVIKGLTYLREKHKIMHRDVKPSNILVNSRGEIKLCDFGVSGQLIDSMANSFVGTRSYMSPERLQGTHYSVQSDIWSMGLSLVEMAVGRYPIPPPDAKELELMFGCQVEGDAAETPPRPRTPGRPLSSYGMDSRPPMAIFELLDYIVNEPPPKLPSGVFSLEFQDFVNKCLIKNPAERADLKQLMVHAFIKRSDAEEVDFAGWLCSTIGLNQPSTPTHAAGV
T1 sequence (P01112 1-166 G12V): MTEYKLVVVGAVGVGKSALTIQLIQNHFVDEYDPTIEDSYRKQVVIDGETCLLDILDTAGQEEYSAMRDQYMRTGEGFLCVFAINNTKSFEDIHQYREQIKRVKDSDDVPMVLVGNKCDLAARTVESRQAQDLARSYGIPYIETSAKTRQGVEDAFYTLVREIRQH
T5 sequence (P27361 whole entry): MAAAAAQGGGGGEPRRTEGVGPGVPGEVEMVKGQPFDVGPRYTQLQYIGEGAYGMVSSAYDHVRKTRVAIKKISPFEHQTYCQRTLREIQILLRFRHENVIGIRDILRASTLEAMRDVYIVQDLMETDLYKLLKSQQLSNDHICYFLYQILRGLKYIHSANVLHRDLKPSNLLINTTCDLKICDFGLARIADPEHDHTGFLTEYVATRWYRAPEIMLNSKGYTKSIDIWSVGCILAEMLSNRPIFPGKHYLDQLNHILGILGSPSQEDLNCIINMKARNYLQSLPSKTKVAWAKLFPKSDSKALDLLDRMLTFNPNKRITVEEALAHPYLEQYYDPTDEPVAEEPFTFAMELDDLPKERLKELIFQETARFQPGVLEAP

SMILES | binding to^G12V-GppNHp (SPR) [1] | inhibition of AKT phosphorylation ([2]; H358, 20 μM, 3 h) | concentration at which inhibition of AKT phosphorylation initiates ([2]; H358, starved 24 h, 3 h compound, Western) | inhibition at 10 µM ([2]; Homo sapiens, NCI-H358, H358, 10 μM, 3 h) | % kinase activity in the presence of Abd-7 [3] | % kinase activity in the presence of Abd-7 [4] | % kinase activity in the presence of Abd-7 [5] | % kinase activity in the presence of Abd-7 [6] | % kinase activity in the presence of Abd-7 [7] | inhibition of ERK1/2 phosphorylation [8]
O=C(NCC1COc2ccccc2O1)c1ccco1 (stereo not shown) [Abd-2] | binds | – | – | – | – | – | – | – | – | –
COc1nc(-c2cccc3c2OCCO3)ccc1Nc1ccc(CN(C)C)cc1 [Abd-7] | – | complete inhibition | 2 µM | > 50% | 108% | 105% | 111% | 103% | 126% | diminution of pERK levels
